Here are results for 2 compounds from PMC5333415, “Enhancement of scutellarin oral delivery efficacy by vitamin B12-modified amphiphilic chitosan derivatives to treat type II diabetes induced-retinopathy” (Journal of Nanobiotechnology, 2017).

For data set [1] the following is noted: cited from earlier work.
A short description of data set [2]: Pharmacokinetics study in vivo, single oral dose. To be noted: male, Sprague-Dawley, rat, rats, oral gavage, scutellarin dose 40 mg/kg, n = 6, mean ± SD; for half-life: plasma, po, 40 mg/kg. As to the method:
Male Sprague–Dawley rats (weighing 220–250 g) were fasted for 12 h, but allowed water ad libitum the day before drug administration. Scutellarin, Chit-DC-Scu, and Chit-DC-VB12-Scu were resuspended in PBS and administered to rats (at the same scutellarin dose of 40 mg/kg) by oral gavage. Blood samples (0.2 ml) were collected from the tail vein of each rat before dosing and at 0.25, 0.5, 0.75, 1, 2, 3, 5, 8, 12, 24 h post-dosing. An equal volume of 0.9% saline solution was injected after each collection. Plasma samples were obtained by centrifugation at 10,000 rpm for 10 min immediately after blood collection and were stored at −20 °C until analysis. HPLC (Agilent 1100, USA) was used to determine the concentration of scutellarin in plasma.

Data set [3] in a line: Caco-2 cell permeability (AP to BL transport). The settings on record: human; Caco-2 monolayers, 10 μg/ml scutellarin, without IF; read-out: Papp, AP side to BL side. It counts as in vitro ADME, human. As to the method: (§1) Caco-2 cells were seeded in 12-well transport inserts at a density of 2 × 10^5 cells/cm^2 in DMEM. Cells were maintained at 37 °C in a humidified atmosphere containing 5% CO2 for 21 days. Monolayers with transendothelial electrical resistance values above 300 Ω cm^2 were used in this study. On the day of the transport experiments, the culture medium was replaced with hank’s balanced salt solution (HBSS). Before the assay, Caco-2 cells monolayers was rinsed twice and incubated with the transport medium for an hour. After removing the transport medium, scutellarin, Chit-DC-Scu, Chit-DC-VB12-Scu (10 μg/ml scutellarin) alone or in the presence of IF ([…], 20 μl of a 100 IU/ml solution) were add to the apical side (0.5 ml) and 1.5 ml DMEM was added to the basolateral side of Transwell inserts. Cells were maintained at 37 °C in a humidified atmosphere containing 5% CO2 with orbital shaking at 50 rpm throughout the assay. At pre-determined intervals of 0, 30, 60, 90 and 120 min, 50 μl of transport buffer at the basolateral side was collected and mixed with the same volume of methanol, and an equal amount of DMEM was instantly added to the basolateral side to maintain a constant dissolution volume. The assay was performed in triplicate. Concentrations of scutellarin, Chit-DC-Scu and Chit-DC-VB12-Scu in corresponding samples were assessed by HPLC [35, 36].
On the technique in general: Caco-2 monolayers are a common model of the intestinal barrier.

The subject of data set [4] is Caco-2 cell monolayers. Nature of the data set: Caco-2 cell permeability (AP to BL transport). It counts as in vitro ADME, human. To be noted: estimated from Papp based on the previous research. Here is the method:
as §1

Data set [5] concerns central retinal artery of type II diabetic rats. Nature of the data set: Color Doppler sonography of central retinal vasculature, type 2 diabetic model. To be noted: 40 mg/kg/day scutellarin. It counts as in vivo, Sprague–Dawley rats. As to the method:
(§2) Type 2 diabetes was induced in male Sprague–Dawley rats (weighing 230–250 g, Experimental Animal Center of Sun Yat-sen University, China. Certificate No: SCXK (Q) 2011-0029). All animals were housed five per cage in a room and maintained at a constant temperature (22 °C) under a 12/12 h light/dark cycle. All procedures were carried out according to the National Institutes of Health Guide for Care and Use of Laboratory Animals and were approved by the Bioethics Committee of Sun Yat-sen University. Rats were randomly assigned to a control group, a Scu group (normal rats with 40 mg/kg/day scutellarin treatments), and five type II diabetes model groups (n = 8/group). The control and Scu groups were fed for 16 weeks on regular standard diets, while rats from type II diabetes model groups (T2D) were fed a high-fat (HFS, Guangdong Medical Laboratory Animal Center, Guangzhou, China) diet for 16 weeks that consisted of 30% from total kcal from fats, 55% from carbohydrates and 15% from protein. After 8 weeks on the HFS diet, rats in the T2D groups were fasted overnight and each rat received a single intraperitoneal injection of streptozotocin (STZ, Sigma, USA) at a dose of 30 mg/kg body weight the following morning while the rats in the control group were injected with an equal volume of citrate buffer. The STZ was freshly diluted in citrate buffer (0.1 mol/l, pH 4.0). After the injection, the HFS diet feeding was continued. Blood glucose and body weight were monitored 3 days after the STZ or citrate buffer injection, and once a week thereafter. […]
Prior to sacrifice, all rats were anesthetized and color Doppler sonography analysis of the right eye was performed. […] At least three measurements were recorded for each animal and the mean of the three readings was taken as the representative value. The resistivity index (RI) of the central retinal artery (CRA) was calculated by subtracting the diastolic velocity (DV) from the peak systolic velocity (SV) and then dividing by the systolic velocity [(SV − DV)/SV] […]

Data set [6] relates to retina of type II diabetic rats. The data set is described as follows: Retinal histopathology (hematoxylin and eosin), type 2 diabetic model. It counts as in vivo, Sprague–Dawley rats. The settings on record: 40 mg/kg/day scutellarin. Here is the method: as §2, with “After 8 weeks on the HFS diet, rats in the T2D groups were fasted overnight and each rat received a single intraperitoneal injection of streptozotocin (STZ, Sigma, USA) at a dose of 30 mg/kg body weight the following morning while the rats in the control group were injected with an equal volume of citrate buffer. The STZ was freshly diluted in citrate buffer (0.1 mol/l, pH 4.0). After the injection, the HFS diet feeding was continued.” left out

Data set [7] has as its system VEGF. Nature of the data set: Western blot of retinal homogenates, VEGF. The settings on record: diabetic rats, 40 mg/kg/day scutellarin, 8 weeks, compared to diabetic rats treated with or without Chit-DC. It counts as in vivo, Sprague–Dawley rats. As to the method:
as §2, with “After 8 weeks on the HFS diet, rats in the T2D groups were fasted overnight and each rat received a single intraperitoneal injection of streptozotocin (STZ, Sigma, USA) at a dose of 30 mg/kg body weight the following morning while the rats in the control group were injected with an equal volume of citrate buffer. The STZ was freshly diluted in citrate buffer (0.1 mol/l, pH 4.0). After the injection, the HFS diet feeding was continued.” left out

In data set [8] the test system is VEGFR2. The data set is described as follows: Western blot of retinal homogenates, VEGFR2. It counts as in vivo, Sprague–Dawley rats. The settings on record: diabetic rats, 40 mg/kg/day scutellarin, 8 weeks, compared to diabetic rats treated with or without Chit-DC. As to the method:
as §2, with “After 8 weeks on the HFS diet, rats in the T2D groups were fasted overnight and each rat received a single intraperitoneal injection of streptozotocin (STZ, Sigma, USA) at a dose of 30 mg/kg body weight the following morning while the rats in the control group were injected with an equal volume of citrate buffer. The STZ was freshly diluted in citrate buffer (0.1 mol/l, pH 4.0). After the injection, the HFS diet feeding was continued.” left out
Background: In western blotting, separated proteins are transferred to a membrane and probed.

Data set [9] deals with vWF. The data set is described as follows: Western blot of retinal homogenates, vWF. To be noted: diabetic rats, 40 mg/kg/day scutellarin, 8 weeks, compared to diabetic rats treated with or without Chit-DC. It counts as in vivo, Sprague–Dawley rats. Here is the method:
as §2, with “After 8 weeks on the HFS diet, rats in the T2D groups were fasted overnight and each rat received a single intraperitoneal injection of streptozotocin (STZ, Sigma, USA) at a dose of 30 mg/kg body weight the following morning while the rats in the control group were injected with an equal volume of citrate buffer. The STZ was freshly diluted in citrate buffer (0.1 mol/l, pH 4.0). After the injection, the HFS diet feeding was continued.” left out

Data set [10] is described as follows: Solubility. It counts as physicochemical.
The subject of data set [11] is membranes over expressing several common transporters. More on the design: method as in PMID 27586020. The settings on record: cited from earlier work.
The mark [12] stands for this setting: T2D rats, intragastric, 8 weeks, compared to DM rats.

≈ marks a conversion by molar mass, not a printed value. Where two headings read alike, the source gives them in different places.

Take `CC(=O)OCC(=O)[C@@]12OC(C)(C)O[C@@H]1C[C@H]1[C@@H]3CCC4=CC(=O)C=C[C@]4(C)[C@@]3(F)[C@@H](O)C[C@@]12C` [triamcinolone acetonide acetate]: the “water solubility of triamcinolone acetonide acetate” value in data set [1] (free drug versus loaded in deoxycholic acid-modified chitosan nanoparticles) was 300 µg/mL.

In the case of `O=C(O)[C@H]1O[C@@H](Oc2cc3oc(-c4ccc(O)cc4)cc(=O)c3c(O)c2O)[C@H](O)[C@@H](O)[C@@H]1O` [Scu, 4′,5,6-trihydroxyflavone-7-O-glucuronide], the half-life in data set [2] (read-out: T1/2(α) (converted)) was 0.405 ± 0.055 h. Moreover, the half-life in data set [2] (read-out: T1/2(β) (converted)) was 1.88 ± 0.105 h. Further, in data set [2] (plasma scutellarin), the Cmax (commonly the maximum level reached in the sampled fluid or tissue) stood at 129 ± 85.5 ng/mL and the Tmax (usually the time from dosing to the highest level) came to 1.24 ± 0.025 h. Also, in data set [3], the Papp (commonly the rate of passage across a membrane or cell layer, normalised by area and donor concentration) at 120 min, 10 μg/ml stood at 0.32 ×10⁻⁶ cm/s. The “scutellarin absorbed by the small intestine” value in data set [4] is recorded as “about 1%”. Also, in data set [5] (setting [12]), the “retinal blood flow velocity” value is “increased blood flow velocities” and the “retinal resistivity index (RI)” value is “reduced retinal RI values”. In data set [5] (normal (non-diabetic) rats), the “blood flow velocity or RI in normal rats” value is “No significant changes in blood flow velocity or RI”. Further, in data set [6], the “retinal morphology (HE staining) in normal rats” value is given as “continuous with normal capillary structure”. Also, the “expression of VEGF in the retina” value in [7] is reported as “downregulated”. In addition, in data set [8], the “expression of VEGFR2 in the retina” value is on record as “downregulated”. For the same compound, the “expression of vWF in the retina” value in data set [9] is reported as “downregulated”. Further, the “solubility in distilled water” value in [10] (distilled water) is recorded as “poorly dissolved”. For the same compound, the “solubility in methanol and PBS solution” value in [10] (methanol and PBS solution (pH7.2)) is “soluble”. The water solubility in data set [1] was 160 µg/mL (≈ 346 µM). In addition, the “increase of Papp(AP-BL)” value in data set [11] is recorded as 3.5 fold.
